According to patent US20250213701A1, “MEDICAMENT FOR TREATING HUMAN TUMOR BASED ON ERF3A-TARGETING PROTEOLYSIS MECHANISM” (SUZHOU DEGEN BIO-MEDICAL CO., LTD., priority 2022, published 2025):

What was measured:
Format in all cases: cell-based, human
PC-3 cells = assay: Anti-proliferative toxicity against prostate cancer cell line PC-3 (CCK8); details: Homo sapiens, 72 h, 3 days
How it was run: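 PC-3 cells (4000/well, pre-cultured 24 h) exposed in triplicate to compound at final 0.00001-1.0 μM for 3 days at 37 °C, 5% CO2. Viability read by CCK8, 1-4 h at 37 °C, absorbance at 450 nm.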

22Rv1 cells = assay: Anti-proliferative toxicity against prostate cancer cell line 22Rv1 (CCK8); details: 3 days; for IC50: Homo sapiens, 72 h, CCK8
How it was run: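 22Rv1 cells pre-cultured for 48 h, then exposed to compounds at 0.00001-1.0 μM final, in triplicate, for 3 days. Viability read by CCK8 absorbance at 450 nm after 1-4 h at 37 °C.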

VCaP cells = assay: Anti-proliferative toxicity against prostate cancer cell line Vcap (CCK8); details: 3 days; for IC50: Homo sapiens, 72 h, CCK8
How it was run: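 VCaP cells (DMEM, 10% FBS) seeded 20000 cells/well, cultured 72 h, then exposed in triplicate to compound at final well concentrations of 0.00001–0.16 μM for 3 days at 37 °C, 5% CO2. Viability by CCK8, 1–4 h at 37 °C, absorbance at 450 nm.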

Row | SMILES | IC50 (PC-3 cells) [nM] | Anti-proliferative toxicity data in 22Rv1 cells (22Rv1 cells; 0.00001 μM) [%] | Anti-proliferative toxicity data in 22Rv1 cells (22Rv1 cells; 0.00006 μM) [%] | Anti-proliferative toxicity data in 22Rv1 cells (22Rv1 cells; 0.00032 μM) [%] | Anti-proliferative toxicity data in 22Rv1 cells (22Rv1 cells; 0.00160 μM) [%] | Anti-proliferative toxicity data in 22Rv1 cells (22Rv1 cells; 0.00800 μM) [%] | Anti-proliferative toxicity data in 22Rv1 cells (22Rv1 cells; 0.04000 μM) [%] | Anti-proliferative toxicity data in 22Rv1 cells (22Rv1 cells; 0.20000 μM) [%] | Anti-proliferative toxicity data in 22Rv1 cells (22Rv1 cells; 1.00000 μM) [%] | IC50 (22Rv1 cells) [nM] | Anti-proliferative toxicity data in VCaP cells (VCaP cells; 0.00001 μM) [%] | Anti-proliferative toxicity data in VCaP cells (VCaP cells; 0.00005 μM) [%] | Anti-proliferative toxicity data in VCaP cells (VCaP cells; 0.00010 μM) [%] | Anti-proliferative toxicity data in VCaP cells (VCaP cells; 0.00030 μM) [%] | Anti-proliferative toxicity data in VCaP cells (VCaP cells; 0.00100 μM) [%] | Anti-proliferative toxicity data in VCaP cells (VCaP cells; 0.00300 μM) [%] | Anti-proliferative toxicity data in VCaP cells (VCaP cells; 0.00600 μM) [%] | Anti-proliferative toxicity data in VCaP cells (VCaP cells; 0.03200 μM) [%] | Anti-proliferative toxicity data in VCaP cells (VCaP cells; 0.16000 μM) [%] | IC50 (VCaP cells) [nM]
1 | C[C@]12C=CC(=O)N[C@@H]1CC[C@@H]1[C@@H]2CC[C@]2(C)[C@@H](C(=O)Nc3cccc(N[C@@H]4CCC[C@@H](Nc5cccc6c5C(=O)N(C5CCC(=O)NC5=O)C6=O)C4)c3)CC[C@@H]12 (stereo partly drawn) [C59, N-(3-(N—(N-(4-(2-(3-(2,6-dioxopiperidine))-isoindole-1,3-dione))-1R,3R-cyclohexanediamine))phenyl)-3-oxo-4-aza-5α-androst-1-ene-17β-carboxamide] | 0.1 to 10 | 8.3 | 41.3 | 79.6 | 80.7 | 81.1 | 81.1 | 81.9 | 82.3 | 0.1 to 10 | 0.6 | 62.5 | 78.6 | 88.3 | 92.7 | 93.5 | 94.1 | 94.6 | 94.6 | ≤ 0.1
2 | C[C@]12C=CC(=O)N[C@@H]1CC[C@@H]1[C@@H]2CC[C@]2(C)[C@@H](C(=O)Nc3cccc(N[C@@H]4CCC[C@@H](Nc5cccc6c5C(=O)N([C@H]5CCC(=O)NC5=O)C6=O)C4)c3)CC[C@@H]12 [C63, N-(3-(N—(N-(4-(2-(3S-(2,6-dioxopiperidine))-isoindole-1,3-dione))-1R,3R-cyclohexanediamine))phenyl)-3-oxo-4-aza-5α-androst-1-ene-17β-carboxamide] | 0.1 to 10 | 23.5 | 62.4 | 76.5 | 87.8 | 86.5 | 88.0 | 86.9 | 84.5 | 0.1 to 10 | 25.2 | 75.7 | 80.2 | 89.2 | 93.1 | 94.0 | 94.3 | 94.5 | 94.8 | ≤ 0.1
